Results published in paper PMC8156934, “Photophysical Study and Biological Applications of Synthetic Chalcone-Based Fluorescent Dyes” (Molecules, 2021).
Converted amounts (≈) assume the structure as drawn. Read-outs that look alike come from different tables or passages of the source.

Columns and labels:
[1] = tested on: E. coli 780; experiment: Antibacterial activity test (MIC, MBC, growth curve); type: cell-based, Escherichia coli; details: for MBC / MIC: Escherichia coli
Procedure: (§1) All bacteria strains were obtained from the Thailand Institute of Scientific and Technological Research (TISTR). The antibacterial activity of chalcones 3a–f was determined by the minimal inhibitory concentration (MIC) and the minimal bactericidal concentration (MBC) against the Gram-positive (S. aureus 1466, TISTR 1466) and Gram-negative (E.coli 780, TISTR 780) bacteria. The stocks of chalcones 3a–f (0.60 mg/mL) were serially diluted in Muller–Hinton (MH) broth to obtain concentrations in the range of 250–1000 µM. The solutions of chalcones 3a–f (100 µL) at different concentrations were added in the culture of the tested bacteria (100 µL) at a concentration of 1 × 10^6 colony-forming units/mL (CFU/mL) in MH broth at 37 °C with shaking at 80 rpm. The bacterial numbers were determined by measuring the optical density at 600 nm by a UV–Vis spectrometer. […] To determine the MBC values, the bacterial cultures (10 µL) containing the solutions of chalcones 3a–f at MIC and three higher concentrations were dropped on MH agar plates.

[2] = tested on: HEK-293; experiment: Cell viability MTT assay, normal cells; type: cell-based; details: Homo sapiens
Procedure: (§2) For fluorescence imaging of living cells, human embryonic kidney 293 (HEK-293, ATCC) and human hepatoma cancer cell (HepG2, ATCC) were cultured in Dulbecco′s Modified Eagle′s Medium (DMEM, HyClone) supplemented with 10% Fetal Bovine Serum (FBS, Gibco, Carlsbad, CA, USA) and 1% Penicillin/Streptomycin Solution 100X (Corning, Corning, NY, USA). All cells were cultured in a humidified incubator at 37 °C with 5% CO2. HEK-293 and HepG2 cells, approximately 1 × 10^4 cells, were seeded on 8-well chambered cover glasses (LabTek, Nunc, Carlsbad, CA, USA) and incubated in complete medium for 24 h. After that, the cells were treated with 5 μM stock solutions of 3a–f in DMSO/cell culture medium containing 10% FBS (0.25% DMSO), for 0, 1, 3, and 6 h. Then, the cells were washed twice with 0.01 M PBS before being visualized under a Laser-Scanning Confocal Microscope (Nikon A1Rsi) with a 60× oil immersion objective lens and living cell workstation with the excitation channel at 488 nm.
(§3) The cells were seeded on a 96-well plate, approximately 7 × 10^3 cells per well, and incubated in complete medium for 24 h. After that, the cells were treated with 0, 1, 5, 10, 20, and 50 μM of chalcones 3a–f, and culturing continued for 24 h. After incubation, the cells were washed three times with 10 mM PBS and treated with […] of methylthiazolyldiphenyl-tetrazolium bromide (MTT reagent, 0.5 mg mL^−1, Sigma-Aldrich, St. Louis, MO, USA) for 2–3 h. After medium removal, DMSO was added to dissolve the formazan product, and cell viability was determined by UV–Vis absorption of the resulting formazan at a wavelength of 560 nm in a microplate reader (BMG Labtech/SPECTROstar Nano, Ortenberg, Germany).

[3] = tested on: S. aureus 1466; experiment: Antibacterial activity test (MIC, MBC, growth curve); type: cell-based, Staphylococcus aureus; details: for MBC / MIC: Staphylococcus aureus
Procedure: as §1

[4] = Photo-stability test (photobleaching under 250 W blue light); type: physicochemical; details: DMSO, 250 W blue light (380–500 nm), after 30 min irradiation
Procedure: Chalcones 3a–f were dissolved in DMSO at the final concentration of 1 × 10^−6 M for measuring absorption and emission intensity. Then, 3a–f were irradiated at 250 W (blue-lamp) at a distance of 75 cm. The UV–Visible absorption and fluorescence spectra of the solutions were measured at different time points including 0, 1, 5, 10, 15, 20, and 30 min. Photo-stability was reported in terms of photobleaching absorption and emission (%) calculated from the change of absorption and emission intensity at the absorption and emission maxima before and after irradiation.

[5] = Photophysical properties (UV–Vis absorption and fluorescence spectra); type: physicochemical; details: for λabs absorption maximum wavelength / ∆λ stokes shifts (λem − λabs) / λem emission maximum wavelength / Φf fluorescence quantum yields: 2 µM; for λem emission maximum wavelength: excited at the maximum absorption wavelength; for Φf fluorescence quantum yields: n = 3, relative to fluorescein in 0.1 M NaOH
Procedure: All UV–Vis absorption and fluorescence spectra were recorded on a UV–Vis Spectrophotometer (Agilent Technologies Cary 300, Santa Clara, CA, USA) and a Spectrofluorometer (PerkinElmer LS55, Waltham, MA, USA), respectively. In both experiments, the stock solutions of chalcones 3a–f were prepared as 0.5 mM in DMSO. The appropriate amount of the stock solution was added to DMSO, MeOH, and 0.01 M PBS buffer (pH 7.4) with 3% Tween 80 (3 mL) to obtain the final concentration of 2 µM in the testing solutions. For fluorescence experiments, the emission spectra were recorded at the maximum absorbance wavelength of each compound. The fluorescent quantum yields (Φf) were calculated relative to fluorescein in 0.1 M NaOH as a standard (Φf = 0.95).

[6] = pH effect on fluorescence emission; type: physicochemical; details: 3% Tween 80
Procedure: Chalcones 3a–f (2 µM) were dissolved in commercial pH 1–12 buffers purchased from Merck (St. Louis, MO, USA) (glycine/NaCl/HCl for pH 1, citric acid/NaOH/HCl for pH 2–6, Na2HPO4/KH2PO4 for pH 7, boric acid/ KCl/NaOH for pH 8–11, Na3PO4/NaOH for pH 12) in the presence of Tween 80 (3% w/w). The actual pH values of the final buffer solutions were measured by a pH meter. The resulting solutions were examined by a Spectrofluorometer (PerkinElmer LS55) at the maximum absorbance wavelength of each compound.

[7] = tested on: HepG2; experiment: Cell viability MTT assay, cancer cells; type: cell-based; details: Homo sapiens, HepG2, 24 h
Procedure: as §2, §3

[8] = E. coli 780, mean ± SD of three independent experiments, read-out: MBC
[9] = E. coli 780, mean ± SD of three independent experiments, read-out: MIC
[10] = HEK293, HEK-293, 24 h, MTT, read-out: IC50
[11] = S. aureus 1466, mean ± SD of three independent experiments, read-out: MBC
[12] = S. aureus 1466, mean ± SD of three independent experiments, read-out: MIC

Structure (SMILES)	MBC [1, 8]	MIC [1, 9]	IC50 [2, 10]	% photobleaching of absorbance [4]	% photobleaching of fluorescence [4]	ε molar absorptivity ([5]; DMSO)	λabs absorption maximum wavelength ([5]; DMSO)	∆λ stokes shifts (λem − λabs) ([5]; DMSO)	λem emission maximum wavelength ([5]; DMSO)	Φf fluorescence quantum yields ([5]; DMSO)	ε molar absorptivity ([5]; MeOH)	λabs absorption maximum wavelength ([5]; MeOH)	∆λ stokes shifts (λem − λabs) ([5]; MeOH)	λem emission maximum wavelength ([5]; MeOH)	Φf fluorescence quantum yields ([5]; MeOH)	ε molar absorptivity ([5]; PBS (3%w/w tween 80))	λabs absorption maximum wavelength ([5]; PBS (3%w/w tween 80))	∆λ stokes shifts (λem − λabs) ([5]; PBS (3%w/w tween 80))	λem emission maximum wavelength ([5]; PBS (3%w/w tween 80))	Φf fluorescence quantum yields ([5]; PBS (3%w/w tween 80))	also measured
COc1ccc(C(=O)/C=C/c2ccc(N(C)C)cc2)cc1 [3a]	750 ± 0.02 µM (≈ 211 µg/mL)	375 ± 0.01 µM (≈ 106 µg/mL)	> 100 µM	50%	25%	46000 M⁻¹ cm⁻¹	417 nm	115 nm	532 nm	0.69 ± 0.04	30000 M⁻¹ cm⁻¹	417 nm	132 nm	549 nm	0.013 ± 0.006	33000 M⁻¹ cm⁻¹	416 nm	113 nm	529 nm	0.15 ± 0.02	MBC [3, 11]: 1000 ± 0.09 µM (≈ 281 µg/mL); MIC [3, 12]: 375 ± 0.03 µM (≈ 106 µg/mL); fluorescence emission ([6]; pH range from 2 to 12, 2 µM): Higher emission peaks
CN(C)c1ccc(/C=C/C(=O)c2cccs2)cc1 [3b]	750 ± 0.02 µM (≈ 193 µg/mL)	250 ± 0.02 µM (≈ 64.3 µg/mL)	> 100 µM	26%	43%	31000 M⁻¹ cm⁻¹	431 nm	129 nm	560 nm	0.34 ± 0.04	29000 M⁻¹ cm⁻¹	428 nm	139 nm	567 nm	0.012 ± 0.007	37000 M⁻¹ cm⁻¹	427 nm	93 nm	520 nm	0.11 ± 0.02	IC50 ([7]; MTT, read-out: IC50): 45 µM; MBC [3, 11]: 1000 ± 0.01 µM (≈ 257 µg/mL); MIC [3, 12]: 375 ± 0.01 µM (≈ 96.5 µg/mL); fluorescence emission ([6]; pH range from 2 to 12, 2 µM): Higher emission peaks
CN(C)c1ccc(/C=C/C(=O)c2ccc(O)cc2)cc1 [3c]	–	–	–	37%	50%	10000 M⁻¹ cm⁻¹	413 nm	107 nm	520 nm	0.61 ± 0.04	10000 M⁻¹ cm⁻¹	414 nm	132 nm	546 nm	0.017 ± 0.011	13000 M⁻¹ cm⁻¹	411 nm	115 nm	526 nm	0.11 ± 0.02	MBC [1]; 780: 750 ± 0.01 µM (≈ 200 µg/mL); MIC [1]; 780: 250 ± 0.01 µM (≈ 66.8 µg/mL); IC50 [7]: 100 µM; IC50 ([2]; HEK293, 24 h): > 100 µM; MBC [3]; 1466: 1000 ± 0.01 µM (≈ 267 µg/mL); MIC [3]; 1466: 375 ± 0.01 µM (≈ 100 µg/mL); fluorescence emission ([6]; basic conditions (pH 9–12), 2 µM): reduced emission signals
CN(C)c1ccc(/C=C/C(=O)c2ccc(N(C)C)cc2)cc1 [3d]	375 ± 0.01 µM (≈ 110 µg/mL)	250 ± 0.01 µM (≈ 73.6 µg/mL)	> 100 µM	51%	30%	46000 M⁻¹ cm⁻¹	422 nm	94 nm	516 nm	0.10 ± 0.02	37000 M⁻¹ cm⁻¹	423 nm	132 nm	555 nm	0.024 ± 0.015	44000 M⁻¹ cm⁻¹	422 nm	120 nm	542 nm	0.17 ± 0.03	bacterial growth (OD600 growth curve) ([1]; E. coli 780, increasing concentration, 24 h): significantly inhibited; IC50 ([7]; MTT, read-out: IC50): 56 µM; bacterial growth (OD600 growth curve) ([3]; S. aureus 1466, increasing concentration, 24 h): significantly inhibited; MBC [3, 11]: 1000 ± 0.01 µM (≈ 294 µg/mL); MIC [3, 12]: 250 ± 0.01 µM (≈ 73.6 µg/mL); fluorescence emission ([6]; pH range from 2 to 12, 2 µM): Higher emission peaks
Cc1ccc(C(=O)/C=C/c2ccc(N(C)C)cc2)cc1 [3e]	1000 ± 0.02 µM (≈ 265 µg/mL)	375 ± 0.01 µM (≈ 99.5 µg/mL)	96 µM	46%	21%	32000 M⁻¹ cm⁻¹	420 nm	119 nm	539 nm	0.50 ± 0.02	32000 M⁻¹ cm⁻¹	417 nm	130 nm	547 nm	0.012 ± 0.007	28000 M⁻¹ cm⁻¹	420 nm	101 nm	521 nm	0.18 ± 0.03	IC50 ([7]; MTT, read-out: IC50): 54 µM; MBC [3, 11]: 1000 ± 0.02 µM (≈ 265 µg/mL); MIC [3, 12]: 375 ± 0.03 µM (≈ 99.5 µg/mL); fluorescence emission ([6]; pH range from 2 to 12, 2 µM): Higher emission peaks
